In this assay the target is human Nav1.8 (Homo sapiens (Human), UniProt Q9Y5Y9). The experiment in a line: Nav1.8 Qube automated patch-clamp assay. In kind it is cell-based. To be noted: Nav1.8 Qube Assay; human Nav1.8 channels stably expressed in HEK 293 cells. The procedure, abridged:
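Whole-cell automated patch clamp was run at room temperature on HEK293 cells stably expressing the channel. A 1 Hz, 10 s train of 20 ms pulses to 10 mV from −90 mV (repolarizing to −67 mV) was applied. Peak currents at the 1st and 10th pulses gave resting and inactivated-state IC50 values by Hill fit.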

human Nav1.8, sequence (Q9Y5Y9 whole entry): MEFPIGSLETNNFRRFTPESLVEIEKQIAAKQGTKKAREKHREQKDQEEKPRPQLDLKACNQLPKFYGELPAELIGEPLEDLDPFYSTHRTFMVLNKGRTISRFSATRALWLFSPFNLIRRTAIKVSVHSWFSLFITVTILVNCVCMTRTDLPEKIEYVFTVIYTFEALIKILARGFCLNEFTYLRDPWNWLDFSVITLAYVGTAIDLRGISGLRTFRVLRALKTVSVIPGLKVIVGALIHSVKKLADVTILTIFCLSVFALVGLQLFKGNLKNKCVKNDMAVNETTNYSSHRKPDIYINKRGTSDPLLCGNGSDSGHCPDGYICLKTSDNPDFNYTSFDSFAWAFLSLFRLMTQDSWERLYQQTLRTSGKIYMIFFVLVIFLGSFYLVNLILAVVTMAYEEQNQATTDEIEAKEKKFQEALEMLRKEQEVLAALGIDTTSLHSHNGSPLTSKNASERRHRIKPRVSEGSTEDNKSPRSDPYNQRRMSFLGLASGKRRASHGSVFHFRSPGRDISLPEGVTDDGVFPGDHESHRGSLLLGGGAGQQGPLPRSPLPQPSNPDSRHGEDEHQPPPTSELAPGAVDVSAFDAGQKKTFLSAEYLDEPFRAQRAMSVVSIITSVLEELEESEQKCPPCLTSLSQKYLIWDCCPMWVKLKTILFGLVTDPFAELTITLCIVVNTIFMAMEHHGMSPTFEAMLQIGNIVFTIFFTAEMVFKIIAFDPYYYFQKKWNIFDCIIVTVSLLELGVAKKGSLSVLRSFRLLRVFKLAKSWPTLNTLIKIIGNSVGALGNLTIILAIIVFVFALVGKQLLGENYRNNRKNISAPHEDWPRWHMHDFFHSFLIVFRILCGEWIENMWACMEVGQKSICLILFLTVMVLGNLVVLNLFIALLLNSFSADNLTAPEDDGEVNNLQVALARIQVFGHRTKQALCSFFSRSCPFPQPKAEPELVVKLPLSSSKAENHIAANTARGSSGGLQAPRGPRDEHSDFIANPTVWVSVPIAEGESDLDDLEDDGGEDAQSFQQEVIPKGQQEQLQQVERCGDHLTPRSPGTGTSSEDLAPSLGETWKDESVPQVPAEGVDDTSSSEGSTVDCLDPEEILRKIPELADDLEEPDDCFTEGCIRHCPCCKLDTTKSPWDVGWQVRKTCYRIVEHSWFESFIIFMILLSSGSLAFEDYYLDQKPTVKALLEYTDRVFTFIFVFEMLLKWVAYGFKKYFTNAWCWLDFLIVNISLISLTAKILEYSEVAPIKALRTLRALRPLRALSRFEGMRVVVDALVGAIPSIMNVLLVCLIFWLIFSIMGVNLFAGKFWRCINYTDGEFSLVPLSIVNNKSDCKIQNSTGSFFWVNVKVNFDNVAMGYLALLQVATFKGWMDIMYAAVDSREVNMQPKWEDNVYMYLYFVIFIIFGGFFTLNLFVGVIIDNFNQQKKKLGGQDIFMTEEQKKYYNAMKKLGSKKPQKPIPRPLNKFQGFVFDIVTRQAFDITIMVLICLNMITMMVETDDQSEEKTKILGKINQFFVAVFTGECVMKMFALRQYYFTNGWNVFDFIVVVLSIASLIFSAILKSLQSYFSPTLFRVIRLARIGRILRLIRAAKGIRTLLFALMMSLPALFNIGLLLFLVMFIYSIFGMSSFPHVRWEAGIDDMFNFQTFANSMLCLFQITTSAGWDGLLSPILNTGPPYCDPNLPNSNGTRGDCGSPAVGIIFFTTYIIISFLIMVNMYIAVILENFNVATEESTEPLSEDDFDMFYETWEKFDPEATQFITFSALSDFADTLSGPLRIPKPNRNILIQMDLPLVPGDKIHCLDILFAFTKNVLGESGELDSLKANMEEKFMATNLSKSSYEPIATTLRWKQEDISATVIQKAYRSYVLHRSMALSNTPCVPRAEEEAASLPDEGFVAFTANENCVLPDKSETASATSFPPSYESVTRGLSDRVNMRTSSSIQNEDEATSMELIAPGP

In general, IC50 refers to the concentration needed to halve the response being measured. A low value points to greater potency. Compound `O=C(Nc1ccc2c(c1)S(=O)(=O)NC2)c1cc(C(F)(F)F)cnc1N1CCCCCC1` [Example 121, 2-(azepan-1-yl)-N-(1,1-dioxo-2,3-dihydro-1,2-benzothiazol-6-yl)-5-(trifluoromethyl)-pyridine-3-carboxamide] yielded a half-maximal inhibitory concentration (IC50) of 189 nM.

`NS(=O)(=O)c1cccc(NC(=O)c2ccc(F)nc2N2CCCCCC2)c1` [Example 93, 2-(azepan-1-yl)-6-fluoro-N-(3-sulfamoyl-phenyl)pyridine-3-carboxamide] showed an IC50 of 59 nM.

On to `NS(=O)(=O)c1cccc(NC(=O)c2cc(C(F)(F)F)cnc2N2CCC(F)(F)CC2)c1F` [Example 170, 2-(4,4-difluoropiperidin-1-yl)-N-(2-fluoro-3-sulfamoylphenyl)-5-(trifluoromethyl)nicotinamide], for which the half-inhibitory concentration (IC50) turned out to be 119 nM.

The compound `NC(=O)c1cccc(NC(=O)c2ccc(Cl)nc2N2CCCC(F)(F)CC2)c1` [Example 14, N-(3-carbamoyl-phenyl)-6-chloro-2-(4,4-difluoroazepan-1-yl)pyridine-3-carboxamide] had an IC50 of 18 nM.

`COC(=O)C1CCN(c2ncc(C(F)(F)F)cc2C(=O)Nc2cccc(S(N)(=O)=O)c2)CC1` [Example 61, methyl 1-[3-[(3-sulfamoylphenyl)carbamoyl]-5-(trifluoro-methyl)-2-pyridyl]-piperidine-4-carboxylate] had a 50% inhibitory concentration (IC50) of 1620 nM.

Compound `COc1nc(N2CCCCCC2)c(C(=O)Nc2cccc(S(N)(=O)=O)c2)cc1C(F)(F)F` [Example 169, 2-(azepan-1-yl)-6-methoxy-N-(3-sulfamoylphenyl)-5-(trifluoromethyl)nicotinamide] registered a half-maximal inhibitory concentration (IC50) of 42 nM.

The compound `NS(=O)(=O)c1cc(F)cc(NC(=O)c2cc(C(F)(F)F)cnc2N2CCCCC2)c1` [Example 114, N-(3-fluoro-5-sulfamoyl-phenyl)-2-(1-piperidyl)-5-(tri-fluoromethyl)-pyridine-3-carboxamide] gave a 50% inhibitory concentration (IC50) of 242 nM.

`NS(=O)(=O)c1cccc(NC(=O)c2cc(C(F)(F)F)cnc2N2CCCO[C@H](C(F)(F)F)C2)c1` [Example 147, N-(3-sulfamoylphenyl)-5-(trifluoromethyl)-2-[(2S)-2-(trifluoro-methyl)-1,4-oxazepan-4-yl]pyridine-3-carboxamide] showed an IC50 of 32 nM.

`NS(=O)(=O)c1cccc(NC(=O)c2cc(C(F)(F)F)cnc2N2CCC3(CC2)CC3)c1` [Example 43, 2-(6-azaspiro[2.5]octan-6-yl)-N-(3-sulfamoylphenyl)-5-(trifluoromethyl)nicotinamide] had an IC50 of 57 nM.

`NS(=O)(=O)c1cccc(NC(=O)c2cc(C(F)(F)F)cnc2N2CCCC3(C2)CC3(F)F)c1` (single isomer, unassigned) [Example 126, 2-[(3S or 3R)-2,2-difluoro-5-azaspiro[2.5]-octan-5-yl]-N-(3-sulfamoylphenyl)-5-(trifluoromethyl)-pyridine-3-carboxamide] registered a concentration for half-maximal inhibition (IC50) of 14 nM.

For the compound `COC1CCN(c2ncc(C(F)(F)F)cc2C(=O)Nc2cccc(S(N)(=O)=O)c2)CC1` [Example 66, 2-(4-methoxy-1-piperidyl)-N-(3-sulfamoylphenyl)-5-(trifluoromethyl) pyridine-3-carboxamide], 2610 nM corresponded to half-maximal inhibition (IC50).

With `CC1CN(c2ncc(C(F)(F)F)cc2C(=O)Nc2cccc(S(N)(=O)=O)c2)CCC1(F)F` (single isomer, unassigned) [Example 124, (S or R)-2-(4,4-difluoro-3-methylpiperidin-1-yl)-N-(3-sulfamoylphenyl)-5-(trifluoromethyl)nicotinamide], the IC50 stood at 15 nM.

`CC(C)c1cnc(N2CCCC(F)(F)CC2)c(C(=O)Nc2cccc(S(N)(=O)=O)c2)c1` [Example 162, 2-(4,4-difluoroazepan-1-yl)-5-isopropyl-N-(3-sulfamoylphenyl)nicotinamide] showed a 50% inhibitory concentration (IC50) of 7.1 nM.

`C[C@@H]1CN(c2ncc(C(F)(F)F)cc2C(=O)Nc2cccc(S(N)(=O)=O)c2)C[C@H](C(F)(F)F)O1` [Example 142, 2-[(2R,6R)-2-methyl-6-(trifluoromethyl)morpholin-4-yl]-N-(3-sulfamoylphenyl)-5-(trifluoromethyl)-pyridine-3-carboxamide] gave an IC50 of 1150 nM.

`CS(=O)(=O)c1cccc(NC(=O)c2cc(C(F)(F)F)cnc2N2CCCC(F)(F)C2)c1` [Example 102, 2-(3,3-difluoro-1-piperidyl)-N-(3-methylsulfonylphenyl)-5-(trifluoromethyl)-pyridine-3-carboxamide] returned an IC50 of 706 nM.

As to `CC(C)S(=O)(=O)c1cccc(NC(=O)c2cc(C(F)(F)F)cnc2N2CCCCCC2)c1` [Example 117, 2-(azepan-1-yl)-N-(3-isopropylsulfonylphenyl)-5-(trifluoromethyl)-pyridine-3-carboxamide], the IC50 turned out to be 778 nM.

For `NS(=O)(=O)c1cccc(NC(=O)c2cc(C(F)(F)F)cnc2N2CC3CCC(C2)O3)c1` [Example 57, 2-(8-oxa-3-azabicyclo[3.2.1]octan-3-yl)-N-(3-sulfamoyl-phenyl)-5-(trifluoro-methyl)pyridine-3-carboxamide], 575 nM corresponded to half-maximal inhibition (IC50).

Consider `NS(=O)(=O)c1cccc(NC(=O)c2cc(C(F)(F)F)cnc2N2CCOCC2)c1` [Example 69, 2-morpholino-N-(3-sulfamoylphenyl)-5-(trifluoromethyl) pyridine-3-carboxamide], for which the IC50 was 4060 nM.

`NS(=O)(=O)c1cccc(NC(=O)c2cc(C(F)(F)F)cnc2N2CCc3scnc3C2)c1` [Example 55, 2-(6,7-dihydro-4H-thiazol[4,5-c]pyridin-5-yl)-N-(3-sulfamoyl-phenyl)-5-(trifluoro-methyl)pyridine-3-carboxamide] registered an IC50 of 405 nM.

`COC(=O)C1CCCCN(c2ncc(C(F)(F)F)cc2C(=O)Nc2cccc(S(N)(=O)=O)c2)C1` (stereo not drawn) [Example 67, methyl 1-[3-[(3-sulfamoylphenyl)carbamoyl]-5-(trifluoro-methyl)-2-pyridyl]-azepane-3-carboxylate] had a concentration for half-maximal inhibition (IC50) of 2980 nM.

For `Cc1nc(N2CCC(F)(F)CC2)c(C(=O)Nc2cccc(C(N)=O)c2)c(C)c1Cl` [Example 16, N-(3-carbamoyl-phenyl)-5-chloro-2-(4,4-difluoro-1-piperidyl)-4,6-dimethyl-pyridine-3-carboxamide], the 50% inhibitory concentration (IC50) is 24 nM.

`NS(=O)(=O)c1cccc(NC(=O)c2ccc(C(F)(F)F)nc2N2CCCCC2)c1` [Example 77, 2-(1-piperidyl)-N-(3-sulfamoylphenyl)-6-(trifluoromethyl) pyridine-3-carboxamide]: the IC50 turned out to be 286 nM.

`CS(=O)(=O)c1cccc(NC(=O)c2cc(C(F)(F)F)cnc2N2CC3CCC(F)(F)C3C2)c1` (stereo not drawn) [Example 96, 2-(4,4-difluoro-1,3,3a,5,6,6a-hexahydrocyclopenta[c]pyrrol-2-yl)-N-(3-methylsulfonylphenyl)-5-(trifluoromethyl)-pyridine-3-carboxamide] gave a 50% inhibitory concentration (IC50) of 40 nM.

As for `Cc1nc(N2CCC3(CC2)CC3)c(C(=O)Nc2cccc(C(N)=O)c2)c(C)c1Cl` [Example 13, 2-(6-azaspiro[2.5]-octan-6-yl)-N-(3-carbamoyl-phenyl)-5-chloro-4,6-dimethyl-pyridine-3-carboxamide], inhibition was half-maximal at 13 nM (IC50).

For `NS(=O)(=O)c1cccc(NC(=O)c2cc(C(F)(F)F)cnc2N2CCCCCC2)c1` [Example 44, 2-(azepan-1-yl)-N-(3-sulfamoylphenyl)-5-(trifluoromethyl)-pyridine-3-carboxamide], inhibition was half-maximal at 9.5 nM (IC50).

Compound `NS(=O)(=O)c1cccc(NC(=O)c2cc(C(F)(F)F)cnc2N2CCC(F)(F)C2)c1` [Example 60, 2-(3,3-difluoropyrrolidin-1-yl)-N-(3-sulfamoyl-phenyl)-5-(trifluoromethyl) pyridine-3-carboxamide] had an IC50 of 737 nM.

As for `CC12CCN(c3ncc(C(F)(F)F)cc3C(=O)Nc3cccc(S(N)(=O)=O)c3)CC1C2(F)F` (single isomer, unassigned) [Example 129, 2-[(1S,6S or 1R,6R)-7,7-difluoro-6-methyl-3-azabicyclo[4.1.0]heptan-3-yl]-N-(3-sulfamoyl-phenyl)-5-(trifluoro-methyl)pyridine-3-carboxamide], the IC50 was 63 nM.

On to `N#Cc1cccc(NC(=O)c2cc(C(F)(F)F)cnc2N2CCCCCC2)c1` [Example 21, 2-(azepan-1-yl)-N-(3-cyanophenyl)-5-(trifluoromethyl)pyridine-3-carboxamide], for which the 50% inhibitory concentration (IC50) turned out to be 254 nM.

`CN1C2CCC1CN(c1ncc(C(F)(F)F)cc1C(=O)Nc1cccc(S(N)(=O)=O)c1)C2` (racemic) [Example 71, 2-[rac-(1S,5R and 1R,5S)-8-methyl-3,8-diazabicyclo[3.2.1]-octan-3-yl]-N-(3-sulfamoylphenyl)-5-(trifluoromethyl) pyridine-3-carboxamide] gave a half-maximal inhibitory concentration (IC50) of 5550 nM.

`NC(=O)c1cccc(NC(=O)c2ccc(C(F)(F)F)nc2N2CCC3(CC2)CC3)c1` [Example 83, N-(3-carbamoyl-phenyl)-2-(6-azaspiro[2.5]octan-6-yl)-6-(trifluoro-methyl)-nicotinamide] returned an IC50 of 180 nM.

Regarding `Cc1nc(N2CCC3(CC2)CC3)c(C(=O)Nc2cccc(S(N)(=O)=O)c2)c(C)c1Cl` [Example 76, 2-(6-azaspiro[2.5]-octan-6-yl)-5-chloro-4,6-dimethyl-N-(3-sulfamoylphenyl) pyridine-3-carboxamide], it took 2.2 nM to reach half-maximal inhibition (IC50).

For `O=C(Nc1cccc(S(=O)(=O)N2CCCC2)c1)c1cc(C(F)(F)F)cnc1N1CCCCCC1` [Example 24, 2-(azepan-1-yl)-N-(3-pyrrolidin-1-yl-sulfonylphenyl)-5-(trifluoromethyl)-pyridine-3-carboxamide], the IC50 was 4430 nM.

`CS(=O)(=O)c1cccc(NC(=O)c2cc(C(F)(F)F)cnc2N2C[C@H]3CCCC[C@H]3C2)c1` [Example 97, 2-[(3aS,7aR)-1,3,3a,4,5,6,7,7a-octahydroisoindol-2-yl]-N-(3-methyl-sulfonylphenyl)-5-(trifluoromethyl) pyridine-3-carboxamide] showed a half-inhibitory concentration (IC50) of 49 nM.
